Legend:
[1] = test system: cultured adult mouse cochlea; test: Hair cell regeneration in cultured adult wild-type mouse cochlea, reprogramming followed by ad-Atoh1 infection; assay type: cell-based; conditions: for reprogramming and regeneration of hair cells with another HDAC inhibitor in the cocktail instead of VPA: TSA 82.5 nM, SAHA 2 μM, Belinostat 1 μM with LiCl, FSK, siFIR, siMxi1, after Ad-Atoh1 infection
Protocol: Different from the neonatal cochlear culture method, in which the cochleae were disassociated from the bone, adult mouse whole cochleae (4-6 weeks old) were dissected with the bone attached. The bulla was first removed from the skull and dipped in 75% ethanol for 3 minutes before being placed in HBSS. The vestibular region was also removed. Under a dissecting microscope, the middle ear, vessels and the debris were removed from the bulla. The bone covering the apical turn was removed, and round window and oval window membranes were opened to allow media exchange with the cochlear fluids. The ligament portion and Reissner's membrane at each end of the cochlea were also removed to facilitate the access of medium to the sensory epithelial region. The cochleae were maintained in DMEM/F12 (Invitrogen) supplemented with N2 and B27 (both from Invitrogen) for 14-18 days. Ad-Atoh1 ad-Atoh1-mCherry adenoviruses were purchased from the SignaGen Laboratories, Rockville, MD, with titers of 6×10^10 pfu/ml.
In the rtTA/tet-Myc/tet-NICD mouse model, cochleae were treated with Dox (Sigma, 2 μg/ml final concentration); In the Sox2/tdT/rtTA/tet-Myc/tet-NICD mouse model, cochleae were treated with Dox (Sigma, 2 μg/ml final concentration) and 4-Hydroxytamoxifen (Tm, Sigma) (20 ng/ml); in the rtTA/tet-Myc and rtTA/tet-Myc/Atoh1-GFP mouse models, cochleae were treated with Dox (Sigma, 2 μg/ml final concentration) and VPA (2 mM); in the Sox2/tdT/rtTA/tet-Myc mouse model, cochleae were treated with 4-Hydroxytamoxifen (20 ng/ml), Dox (Sigma, 2 μg/ml) and VPA (Sigma, 2 mM); in the rtTA/tet-NICD mouse model, cochleae were treated with Dox (Sigma, 2 μg/ml final concentration), LiCl (Sigma, 8 mM), FSK (Tocris Bioscience, 20 μM), siFIR (Santa Cruz Bio-technology, 0.02 μM), and siMxi1 (Santa Cruz Bio-technology, 0.02 μM); in the Sox2/tdT/rtTA/tet-NICD mouse model, cochleae were treated with 4-Hydroxytamoxifen (20 ng/ml), Dox (Sigma, 2 μg/ml final concentration), LiCl (8 mM), Forskolin (FSK) (20 μM), siFIR (Puf 60, Gene ID: 67959) […], and siMxi1 (Gene ID: 17859) (0.02 μM); in the Atoh1-GFP mouse model, cochleae were treated with VPA (2 mM), LiCl (8 mM), FSK […], siFIR (0.02 μM), and siMxi1 (0.02 μM) for 4 days, followed by ad-Atoh1 (6×10^10 pfu/ml) infection overnight. siRNAs were delivered following the manufacturer's instructions (Polyplus-transfection; 89129-920). In cultured adult mouse cochleae, they were treated with HDAC inhibitor, Belinostat (1 μM, Medchemexpress), Trichostatin A (TSA)(82.5 nM, Medchemexpress), Vorinostat (SAHA)(2 μM; Medchemexpress), and Myc siRNA Fbxw7 (0.02 μM, Santa Cruz Biotechnology). The controls were cultured adult cochleae of the same genotype treated with vehicle (sterile water with 0.1% DMSO) plus ad-Atoh1. […]

[2] = test system: adult wild-type mouse utricle; test: Neomycin damage of cultured adult mouse utricle; assay type: cell-based; conditions: neomycin 4 mM for 5 days, vs untreated utricles
Protocol: Whole utricles were dissected from 4-week-old mice and cultured free-floating. Otoconia were removed using a gentle stream of phosphate-buffered saline (PBS) ejected from a 25G needle and syringe. Utricles were cultured in 1000 μL of media in untreated 24-well flat bottom plates. All cultures were maintained at 37° C. in 5% CO2/95% air.
Culture media consisted of Dulbecco's Modified Eagle's Medium/F12 (DMEM/F12, Invitrogen) with B27 and N2 supplement. Neomycin sulfate stock (10 mg/mL in 0.9% NaCl, from Sigma Aldrich) was diluted in culture media to 4 mM. Valproic acid (VPA) from Sigma was included at 2 mM, and siRNAs from Santa Cruz were included at 0.02 μM.

| Compound | reprogramming and regeneration of hair cells with another HDAC inhibitor in the cocktail instead of VPA [1] | other results |
| --- | --- | --- |
| O=C(/C=C/c1cccc(S(=O)(=O)Nc2ccccc2)c1)NO [Belinostat, belinostat] | sufficient to induce reprogramming and efficient regeneration of hair cells |  |
| O=C(CCCCCCC(=O)Nc1ccccc1)NO [SAHA, N-Hydroxy-N′-phenyloctanediamide] | sufficient to induce reprogramming and efficient regeneration of hair cells |  |
| CC(/C=C/C(=O)NO)=C\[C@@H](C)C(=O)c1ccc(N(C)C)cc1 [TSA, (2E,4E,6R)-7-(4-(Dimethylamino)phenyl)-N-hydroxy-4,6-dimethyl-7-oxo-2,4-heptadienamide] | sufficient to induce reprogramming and efficient regeneration of hair cells |  |
| CCCC(CCC)C(=O)[O-].[Na+] [VPA, Sodium 2-propylpentanoate] |  | HC (MYO7A+) regeneration ([1]; cultured adult WT cochlea, treatment followed by Ad-Atoh1 infection (FIG. 7B)): did not lead to HC (MYO7A) |
| Neomycin sulfate |  | utricle hair cells (MYO7A) after neomycin [2]: decreased total numbers of utricle HC; utricle hair cells (MYO7A) after neomycin ([2]; listed as Neomycin): loss of hair cells |

Source: patent US20240100079A1, “METHODS AND COMPOSITIONS FOR REGENERATING HAIR CELLS IN THE INNER EAR OF ADULT MAMMALS” (Massachusetts Eye and Ear Infirmary, priority 2021, published 2024)
